Measured values taken from patent publication US20250332139A1, “PS[…] AND THEIR USE FOR TREATING […] AND NE[…] DISORDERS” (Transcend Therapeutics, Inc., priority 2021, published 2025).
Where two headings read alike, the source gives them in different places.

Experiments:
rats [1] = experiment: Open field test (OFT); assay type: in vivo, rat; settings: for time spent in the center of the open field: methylone single dose IP 30 min before test (5 or 15 mg/kg in b361; 5-30 mg/kg in b50)
Experimental: This behavioral assay, also widely used as an anxiety paradigm, capitalizes on a rodent's innate fear of brightly lit open spaces, which are assumed to induce fear or anxiety. Rodents spend more time hugging the walls of the open field during the test, and these effects correlate to underlying brain regions and mechanisms.
Method: Consecutive beam breaks and/or video-tracking of time spent in the center versus periphery of the open field are measured. Also measured are parameters such as distance traveled and ambulatory activity (horizontal and vertical) for the duration of the test session.
The open field test (OFT) capitalizes on a rodent's innate fear of open spaces to assess anxiety-like behavior. More time spent in the center of an open field reflects an anxiolytic (anti-anxiety) effect.
To investigate whether MBDB has an anti-anxiety (anxiolytic) effect, rats were dosed with MBDB (0.5-30 mg/kg, IP) or vehicle (saline) and 30-minutes later were tested in the open field for 30 minutes. This anxiety test capitalizes on a rodents' innate fear of wide-open spaces and propensity to hug the walls when placed into the open field. Therefore, a drug that increases the time spent in the center of the open field has anxiolytic activity and predicts utility for treating anxiety in humans.

C57BL/6J mice = experiment: Fear extinction paradigm (PTSD mouse model); assay type: in vivo
Text: Effective PTSD treatments facilitate the disassociation between a traumatic memory and the patient's fear response, making cues for the traumatic memory evoke less of a fear response. This is modeled in the mouse fear extinction paradigm (see FIG. 9A) which takes place over 3 days. On day 1 (fear conditioning), mice are trained to acquire a “traumatic memory,” namely associating the conditioned stimulus (CS, tone) to the unconditioned stimulus (US, foot shock). On day 2 (extinction training), they are trained to forget the traumatic memory association by presenting the CS 6 times (with no US) in a novel environment. On day 3 (extinction recall), the mice are “asked” if that tone (CS) still elicits a fearful response, as measured by the time spent freezing when the tone is presented. Less time freezing means better extinction recall. Drugs that improve extinction recall reduce freezing time on day 3, and, therefore, show potential as a PTSD treatment.
Methods: Cued fear conditioning was performed in C57BL/6J mice. On day 1, animals were placed in the chambers and presented with a training session (CS-US pairing). The training consisted of a 2-minute habituation followed by a 30-second, 80 dB tone; during the last 2 seconds of the tone animals received a 1 mA foot shock. This US-CS procedure occurred once for a total of one paired presentation of tone and shock. Freezing behavior (immobility) was recorded in 5-10-see intervals during the session. Percent baseline freezing behavior was determined in the 2-minute habituation period. On day 3, animals were placed in context B, in which tactile and odor cues differed from context A. Following a 2 minute acclimation period animals received 4×30 sec presentations of the CS (tone) in the absence of the US (footshock), with a 45 sec interval between presentations. Freezing was recorded in 5-10-see intervals to measure baseline freezing response to the altered context, and freezing response to each tone cue presentation. […] On day 4 (Post-Extinction Testing in Drug-Free State), animals were placed in Context B. Following a 2 min acclimation period, animals received 4×30 sec extinction tone duration presentations of the CS (tone) in the absence of the US (footshock), with a 45 sec interval between presentations. Freezing was recorded in 5-10-see intervals to measure baseline freezing response to the altered context, and freezing response to each tone cue presentation.

[2] = cited from earlier work
[3] = target: T1, dopamine transporter (DAT) (Rattus norvegicus, UniProt P23977); experiment: Competitive radioligand binding, [3H]WIN35428, rat brain lysates
T1 construct: from tissue; synaptosomes for uptake and release
Experimental: Radioligands used were: [^3H] Citalopram (PerkinElmer NET1039250UC); [^3H] Nisoxetine (PerkinElmer NET1084250UC); [^3H] WIN35428 (PerkinElmer NET1033250UC). […] Rat brains were dissected and tissue was homogenized in cold lysis buffer, centrifged at 100×g for 2 min and the supernatant was placed in a fresh tube. Supernatant was centrifuged at 13,000×g for 10 min at 4° C. to re-pellet the cell lysate. The pellet was resuspended in fresh wash buffer (50 mM Tris-HCl; 5 mM MgCl2; 5 mM EDTA) and centrifuged a third time. The pellet was then resuspended in wash buffer containing 10% sucrose as a cryoprotectant, divided into aliquots (0.3 mL) and stored at −80° C. A sample of the homogenate was analyzed for protein content using the SIGMA® BCA assay. On the day of the assay, the membrane preparation was thawed, and the pellet resuspended in final assay buffer. […] To each well was added 150 μL membranes, 50 μL of non-specific compound or buffer and 50 μL radioligand solution in buffer. […] Ki was subsequently calculated using the Cheng-Prusoff equation.

rats [4] = experiment: Reserpine-induced fibromyalgia model, von Frey test; assay type: in vivo, rat; settings: methylone 15 mg/kg IP 30 min before vonFrey test, day 4

T1 sequence (P23977 whole entry): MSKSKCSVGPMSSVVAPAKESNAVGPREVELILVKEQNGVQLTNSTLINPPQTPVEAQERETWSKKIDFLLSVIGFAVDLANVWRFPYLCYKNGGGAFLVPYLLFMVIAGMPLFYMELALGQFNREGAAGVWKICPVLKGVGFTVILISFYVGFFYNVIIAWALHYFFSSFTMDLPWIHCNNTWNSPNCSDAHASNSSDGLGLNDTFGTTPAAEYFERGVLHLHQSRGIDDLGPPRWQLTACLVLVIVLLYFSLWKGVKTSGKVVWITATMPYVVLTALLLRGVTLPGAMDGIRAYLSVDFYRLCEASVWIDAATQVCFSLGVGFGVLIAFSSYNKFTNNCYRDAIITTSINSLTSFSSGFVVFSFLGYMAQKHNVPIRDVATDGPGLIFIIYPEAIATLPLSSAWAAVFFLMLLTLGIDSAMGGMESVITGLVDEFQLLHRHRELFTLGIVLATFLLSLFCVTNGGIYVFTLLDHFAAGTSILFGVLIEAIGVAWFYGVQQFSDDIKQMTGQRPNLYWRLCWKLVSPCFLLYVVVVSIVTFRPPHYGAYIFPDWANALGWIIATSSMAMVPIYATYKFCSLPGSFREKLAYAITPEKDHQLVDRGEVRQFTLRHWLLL

CNC(C)C(=O)c1ccc2c(c1)OCO2 (stereo not shown) [methylone, 3,4-methylenedioxy-N-methylcathinone]
locomotor activity in OFT (rats [1]; methylone 15 or 30 mg/kg IP): significant increase in locomotor activity
time spent in the center of the open field (rats [1]): significantly increases the time spent in the center
time spent in the center of the open field (rats [1]; listed as Methylone): significantly increased center time
fear extinction training on day 3 (C57BL/6J mice; Example 35, all doses (10, 20, 30 mg/kg IP)): significantly improved fear extinction training
effect on fear extinction training and testing (C57BL/6J mice; Example 35, methylone 30 mg/kg IP 30 min before extinction training on day 3): rapid, robust and long-lasting beneficial effect
enhancement of fear extinction recall vs saline (C57BL/6J mice; methylone 30 mg/kg IP 30 min before extinction training, day 3): ~60%
locomotion during testing session (C57BL/6J mice; methylone 30 mg/kg IP, day 3): no differences between groups in locomotion
AUC24 hr, Mean ([2]; 50 mg oral, N = 3): (989, 4.5%) hr*μg/L
AUCinf, Mean ([2]; 50 mg oral, N = 3): (1063, 6.9%) hr*μg/L
Cmax, Mean ([2]; 50 mg oral, N = 3): (153.0, 18.9%) μg/L
Half-life, Mean ([2]; 50 mg oral, N = 3): (6.3, 15%) hr
AUC10 hr, Mean ([2]; 100 mg oral, N = 6): (1586, 23.1%) hr*μg/L
AUC24 hr, Mean ([2]; 100 mg oral, N = 6): (2268, 20.4%) hr*μg/L
AUCinf, Mean ([2]; 100 mg oral, N = 6): (2444, 18.3%) hr*μg/L
Cmax, Mean ([2]; 100 mg oral, N = 6): (303.6, 45%) μg/L
Half-life, Mean ([2]; 100 mg oral, N = 6): (6.1, 23.3%) hr
Tmax, Min-Max ([2]; 100 mg oral, N = 6): (0.75-3) hr
AUC10 hr, Mean ([2]; 150 mg oral, N = 5): (2236, 29.0%) hr*μg/L
AUC24 hr, Mean ([2]; 150 mg oral, N = 5): (3349, 36.5%) hr*μg/L
AUCinf, Mean ([2]; 150 mg oral, N = 5): (3777, 42.2%) hr*μg/L
Cmax, Mean ([2]; 150 mg oral, N = 5): (354.6, 30.7%) μg/L
Half-life, Mean ([2]; 150 mg oral, N = 5): (6.8, 23.3%) hr
Tmax, Min-Max ([2]; 150 mg oral, N = 5): (1.5-4) hr
AUC10 hr, Mean ([2]; 200 mg oral, N = 7): (3310, 17.9%) hr*μg/L
AUC24 hr, Mean ([2]; 200 mg oral, N = 7): (4796, 23.2%) hr*μg/L
AUCinf, Mean ([2]; 200 mg oral, N = 7): (5267, 25.1%) hr*μg/L
Cmax, Mean ([2]; 200 mg oral, N = 7): (603.6, 20.6%) μg/L
Half-life, Mean ([2]; 200 mg oral, N = 7): (6.6, 15.1%) hr
Tmax, Min-Max ([2]; 200 mg oral, N = 7): (1-4) hr
Ki [3]: 5.73 µM
paw withdrawal thresholds (rats [4]): significantly increased paw withdrawal thresholds
